ChEMBL document CHEMBL1142025 (Bioorg Med Chem Lett, 2005)

How the values were obtained:
[1] = biological target: T1, Human immunodeficiency virus type 1 protease (Human immunodeficiency virus 1, UniProt Q72874); assay: Binding affinity against human immunodeficiency virus (HIV) protease; assay type: single protein, human immuno deficiency virus protease
Renin = biological target: T2, Renin (Homo sapiens, UniProt P00797); assay: Inhibitory concentration against renin
T2 sequence (P00797 whole entry): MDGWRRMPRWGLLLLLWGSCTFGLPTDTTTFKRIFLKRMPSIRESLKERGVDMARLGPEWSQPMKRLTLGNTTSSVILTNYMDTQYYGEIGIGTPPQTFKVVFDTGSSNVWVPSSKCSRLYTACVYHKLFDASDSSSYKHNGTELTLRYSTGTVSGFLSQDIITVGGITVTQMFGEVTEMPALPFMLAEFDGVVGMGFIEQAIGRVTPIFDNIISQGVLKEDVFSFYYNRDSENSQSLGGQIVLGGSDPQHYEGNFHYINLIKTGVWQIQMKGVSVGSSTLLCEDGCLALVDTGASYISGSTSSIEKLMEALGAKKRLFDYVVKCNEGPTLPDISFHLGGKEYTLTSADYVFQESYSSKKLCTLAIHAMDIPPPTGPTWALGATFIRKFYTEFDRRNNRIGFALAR

[2] = biological target: T1, Human immunodeficiency virus type 1 protease; assay: Inhibitory concentration against human immunodeficiency virus (HIV) protease; parameters: species or system human immuno deficiency virus protease
Pepsin A = Pepsin A (Homo sapiens, UniProt P0DJD9); assay: Inhibitory concentration against pepsin
Pepsin A, sequence (P0DJD9 whole entry): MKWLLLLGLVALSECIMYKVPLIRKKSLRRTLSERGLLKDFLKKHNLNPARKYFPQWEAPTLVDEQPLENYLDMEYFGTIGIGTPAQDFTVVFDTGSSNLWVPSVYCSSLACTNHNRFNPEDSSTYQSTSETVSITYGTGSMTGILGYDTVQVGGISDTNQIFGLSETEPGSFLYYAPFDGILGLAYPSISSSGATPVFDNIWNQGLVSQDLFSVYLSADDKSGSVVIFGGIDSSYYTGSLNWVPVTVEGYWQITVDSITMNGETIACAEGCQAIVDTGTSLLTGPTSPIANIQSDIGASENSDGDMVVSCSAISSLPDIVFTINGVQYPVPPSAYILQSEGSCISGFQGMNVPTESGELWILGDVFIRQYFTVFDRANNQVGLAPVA

[3] = Inhibitory concentration against cathepsin

Ki [1] | SMILES | other results
> 0.25 µM | Cc1ccc(S(=O)(=O)N(CC(C)C)[C@@H](CCCCNC(=O)OCc2ccccc2)C(=O)O)cc1 | 
> 0.3 µM | COC(=O)[C@H](CCCCNC(=O)OC1c2ccccc2-c2ccccc21)N(CC(C)C)S(=O)(=O)c1ccc(C)cc1 | 
> 0.3 µM | Cc1ccc(S(=O)(=O)N(CC(C)C)[C@@H](CCCCNC(=O)OC2c3ccccc3-c3ccccc32)c2nnn[nH]2)cc1 | 
0.107 µM | Cc1ccc(S(=O)(=O)N(CC(C)C)[C@H](CO)CCCCNC(=O)OC2c3ccccc3-c3ccccc32)cc1 | 
26.2 µM | Cc1ccc(S(=O)(=O)NCCC[C@H](NC(=O)OCC2c3ccccc3-c3ccccc32)C(=O)O)cc1 | 
0.107 µM | Cc1ccc(S(=O)(=O)N(CC(C)C)[C@@H](CCCCNC(=O)OC2c3ccccc3-c3ccccc32)C(N)=O)cc1 | 
0.254 µM | Cc1ccc(S(=O)(=O)N(CC(C)C)[C@@H](CCCCNC(=O)OC2c3ccccc3-c3ccccc32)C(=O)NN)cc1 | 
0.105 µM | Cc1ccc(S(=O)(=O)N(CC(C)C)[C@@H](CCCCNC(=O)OC2c3ccccc3-c3ccccc32)C(=O)O)cc1 | 
> 0.25 µM | Cc1ccc(S(=O)(=O)N(CC(C)C)[C@@H](CCCCNC(=O)OC(C)(C)C)C(=O)O)cc1 | 
> 0.25 µM | Cc1ccc(S(=O)(=O)N(CC(C)C)[C@@H](CCNC(=O)OCC2c3ccccc3-c3ccccc32)C(=O)O)cc1 | 
0.127 µM | Cc1ccc(S(=O)(=O)N(CC(C)C)[C@@H](CCCCNC(=O)OC2c3ccccc3-c3ccccc32)C(=N)S)cc1 | 
> 0.25 µM | Cc1ccc(S(=O)(=O)N(CC(C)C)[C@@H](CCCCCNC(=O)OCC2c3ccccc3-c3ccccc32)C(=O)O)cc1 | 
2 µM | Cc1ccc(S(=O)(=O)N(CCCC[C@H](NC(=O)OCC2c3ccccc3-c3ccccc32)C(=O)O)CC(C)C)cc1 | 
0.005 µM | Cc1ccc(S(=O)(=O)N(CC(C)C)[C@@H](CCCCNC(=O)OCC2c3ccccc3-c3ccccc32)C(=O)O)cc1 | IC50 (Renin): 6.5 µM; IC50 [2]: 0.005 µM; IC50 (Pepsin A): 5.4 µM; IC50 [3]: 15.6 µM
0.245 µM | Cc1ccc(S(=O)(=O)N(CC(C)C)[C@@H](CCCCNC(=O)OC2c3ccccc3-c3ccccc32)C(=O)NO)cc1 | 
0.28 µM | Cc1ccc(S(=O)(=O)N(CC(C)C)[C@@H](CCCCNC(=O)OC2c3ccccc3-c3ccccc32)C(=N)N)cc1 | 
> 0.3 µM | Cc1ccc(S(=O)(=O)N(CC(C)C)[C@H](C=O)CCCCNC(=O)OC2c3ccccc3-c3ccccc32)cc1 | 
> 0.25 µM | Cc1ccc(S(=O)(=O)N(CC(C)C)[C@@H](CNC(=O)OCC2c3ccccc3-c3ccccc32)C(=O)O)cc1 | 
> 0.3 µM | CC(C)CN(C(=O)c1ccccc1)[C@@H](CCCCNC(=O)OCC1c2ccccc2-c2ccccc21)C(=O)O | 
> 0.3 µM | Cc1ccc(S(=O)(=O)N(CC(C)C)[C@H](CN)CCCCNC(=O)OC2c3ccccc3-c3ccccc32)cc1 | 

The next lines start with the compound.

SMILES | Ki [1] | other results
CC(C)CN([C@@H](CCCCNC(=O)OCC1c2ccccc2-c2ccccc21)C(=O)O)S(=O)(=O)c1ccc(F)cc1 | 0.0174 µM | 
CC(C)CN([C@@H](CCCCNC(=O)OCC1c2ccccc2-c2ccccc21)C(=O)O)S(=O)(=O)c1ccc(N)cc1 | 0.0021 µM | IC50 (Renin): 5.2 µM; IC50 [2]: 0.0021 µM; IC50 (Pepsin A): 4.1 µM; IC50 [3]: 10.3 µM
Cc1ccc(S(=O)(=O)N(CC2CC2)[C@@H](CCCCNC(=O)OCC2c3ccccc3-c3ccccc32)C(=O)O)cc1 | 0.0039 µM | 
CC(C)CN([C@@H](CCCCNC(=O)OCC1c2ccccc2-c2ccccc21)C(=O)O)S(=O)(=O)c1cccs1 | 0.042 µM | 
CC(C)(C)OC(=O)NCCCC[C@H](NC(=O)OCc1ccccc1)C(=O)O | > 100 µM | 
Cc1ccc(S(=O)(=O)N[C@@H](CCCCNC(=O)OC(C)(C)C)C(=O)O)cc1 | > 100 µM | 
CC(C)CN([C@@H](CCCCNC(=O)OCC1c2ccccc2-c2ccccc21)C(=O)O)S(=O)(=O)c1ccc([N+](=O)[O-])cc1 | 0.0072 µM | 
CC(C)CN([C@@H](CCCCNC(=O)OCC1c2ccccc2-c2ccccc21)C(=O)O)S(=O)(=O)c1ccc(C(C)(C)C)cc1 | 0.257 µM | 
CC(C)CN([C@@H](CCCCNC(=O)OCC1c2ccccc2-c2ccccc21)C(=O)O)S(=O)(=O)c1cccc2ccccc12 | 0.0549 µM | 
Cc1ccc(S(=O)(=O)N(Cc2ccccc2)[C@@H](CCCCNC(=O)OCC2c3ccccc3-c3ccccc32)C(=O)O)cc1 | 0.0196 µM | 
CCC(CC)CN([C@@H](CCCCNC(=O)OCC1c2ccccc2-c2ccccc21)C(=O)O)S(=O)(=O)c1ccc(C)cc1 | 0.0152 µM | 
CCC(C)CN([C@@H](CCCCNC(=O)OCC1c2ccccc2-c2ccccc21)C(=O)O)S(=O)(=O)c1ccc(C)cc1 (stereo partly drawn) | 0.0135 µM | 
Cc1ccc(S(=O)(=O)N(CC2CCCC2)[C@@H](CCCCNC(=O)OCC2c3ccccc3-c3ccccc32)C(=O)O)cc1 | 0.0052 µM | 
Cc1ccc(S(=O)(=O)N(CC(C)C)[C@@H](CCCCNC(=O)CC2c3ccccc3-c3ccccc32)C(=O)O)cc1 | 0.0897 µM | 
Cc1ccc(S(=O)(=O)N(CC(C)C)[C@@H](CCCNC(=O)OCC2c3ccccc3-c3ccccc32)C(=O)O)cc1 | 0.18 µM | 
